The text below walks through data of patent US20230381139A1, “METHODS OF TREATING AND/OR PREVENTING ALZHEIMER’S DISEASE WITH R-CARVEDILOL” (priority 2020, published 2023).

In one test the test system is 5×FAD+/− mice. Put plainly: Learning and memory tests (Morris water maze, novel object recognition) in 5×FAD+/− mice. In kind it is in vivo, mouse. As to conditions: for learning and memory impairments (MWM, NOR): 4-6 months old 5×FAD mice. The method, then: Adult genetically engineered mice, 5×FAD^+/− (Oakley et al., 2006), RyR2-E4872Q^+/− (EQ^+/−) (Chen et al., 2014), 5×FAD^+/−/RyR2-E4872Q^+/− (5×FAD^+/−/EQ^+/−), and wildtype (WT) littermates of both sexes were used. R-carvedilol (R-CV) (at doses of 0.8, 1.6 or 3.2 mg/kg/day), racemic carvedilol (3.2 mg/kg/day), and vehicle control (DMSO) were delivered to 5×FAD^+/− mice in drinking water for one month, starting at different ages before (2-3 months old) or after (3-4 months old) the occurrence of AD pathologies (Oakley et al., 2006). To assess the effects of genetically and pharmacologically limiting RyR2 open time on the prevention and rescue of AD deficits in different stages (early, moderate, and late) of AD progression, animals at different ages (from 2-15 months) were used. As reported (Oakley et al., 2006), there was an age-dependence of AD progression in the 5×FAD^+/− mice. No sex-dependent differences in AD progression in these mice was observed. For 2-photon Ca^2+ imaging experiments, 5×FAD, RyR2 WT, and RyR2 mutant mice were cross-bred with the heterozygous Thy1-GCaMP6f transgenic mice (Chen et al., 2012; Chen et al., 2013) (GP5.17, JAX 025393) to express the GCaMP6f Ca^2+ sensing probe (driven by the Thy1 promotor) in hippocampal neurons in each of the genotypes used.
(§1) The learning and memory of mice with all genotypes were evaluated using the Morris water maze (MWM) test, the Barnes maze (BM) test, and/or the novel object recognition (NOR) test. Experiments were carried out blindly. For the MWM test, mice at different ages were trained to localize a hidden escape platform (10×10 cm) in a circular pool (116.84 cm in diameter, 50 cm in depth) (San Diego Instruments, CA) via distal visual cue. The platform was submerged 1-2 cm beneath the surface in water (22-24°C.), which was rendered opaque by addition of milk powder. The localization of the pool in relation to visual cues was maintained constantly during the entire task. The cues were distinct in color and shape. Digital division of the tracking area (pool) into four quadrants was performed by the SMART video tracking system, Smart 3.0 (Panlab Harvard Apparatus; Barcelona Spain). The escape platform was placed in the centre of the south-west quadrant for the entirety of the learning phase (4 training days) and digitally defined as target. Spatial training consisted of 4 days with 5 trials per mouse per day. Mice were released with their heads facing the pool wall at one of four entry locations (north, east, south and west) in a non-repetitive random order. Swimming was automatically video-tracked until the subject found the escape platform and remained on it (≥5 sec), or until a maximum of 60 seconds. […] In between trials (inter-trial interval ≥10 min), mice were housed in heated cages to avoid performance deficits due to exhaustion or hypothermia. The latency and swimming speed to reach the escape platform were recorded for comparison. After the learning phase, memory retention was evaluated by one probe trial 24 hours after the last training session. The escape platform was removed before mice were released from the north entry point into the pool. Their swimming was video-tracked for 60 seconds. The area at the location of the removed hidden platform was defined as the target and the south-west quadrant the target quadrant. The percentage of time mice spent in the target quadrant (including the target) were measured for comparison.
For the NOR test, mice were habituated for 10 min per mouse in an equally illuminated, odor-free, white, plastic box (40×40×50 cm^3) embedded with fresh aspen shavings and shreds. In between each mouse trial the box was wiped with ethanol to avoid odor-induced stress. 24 hours after habituation, two identical objects ware placed at equal distance to each other and the corners of the box. Each mouse was placed into the center, and allowed to move freely for 10 min. Mice were video recorded during this familiarizing phase. […]

Another test has as its system 3×TG+/− mice. Put plainly: Learning and memory tests (Morris water maze, novel object recognition) in 3×TG+/− mice. The class given is in vivo, mouse. As to conditions: 12-15 months old 3×TG+/− mice, 3.2 mg/kg/day for one month; vs DMSO. As for the experimental part:
Genetically engineered mice of 12-15 months old, 3×TG+/− (Oddo et al., 2003), RyR2-E4872Q+/− (EQ+/−)(Chen et al., 2014), 3×TG+/−/RyR2-E48720+/− (3×TG+/−/EQ+/−), and WT littermates of both sexes were used. Sex differences, which may produce biological variables, were not investigated in this study. R-carvedilol (R-CV) (3.2 mg/kg/day) and vehicle control (DMSO) were delivered to 3×TG+/− mice in drinking water for one month. As shown previously, only heterozygous RyR2-E4872Q+/− mutant mice were produced as homozygous E4872Q+/+mutation is embryonic lethal (Chen et al., 2014). Functional RyR2s are tetrameric channels formed by 4 RyR2 monomers. The heterozygous E4872Q+/− mutant mice (harboring one WT allele and one E4872Q mutant allele) will produce a mixture of homo- and hetero-tetrameric channels that contain the WT, E48720 mutant, or both WT/E4872Q mutant monomers. Thus, the RyR2-E4872Q mutation can exert its negative impact not only on the function of the E4872Q homo-tetramers, but also on the function of the WT monomer in the WT/E4872Q hetero-tetrameric channels.
as §1, with “The area at the location of the removed hidden platform was defined as the target and the south-west quadrant the target quadrant.” left out
For the NOR test, mice were habituated for 10 min per mouse in an equally illuminated, odor-free, white, plastic box (40×40×50 cm^3) embedded with fresh aspen shavings and shreds. […] Mice were video recorded during this familiarizing phase. Side preferences was evaluated by dividing the time a mouse spent exploring one object by the time they spent at the other object. […]

For `COc1ccccc1OCCNC[C@@H](O)COc1cccc2[nH]c3ccccc3c12` [R-carvedilol, R-(+)-carvedilol], the “learning and memory impairments (MWM, NOR)” value with 5×FAD+/− mice (1.6 mg/kg/day for one month, vs DMSO) is given as “rescued”. For the same compound, the “memory loss / learning and memory deficits (MWM, NOR)” value in the test on 5×FAD+/− mice (3.2 mg/kg/day for one month started at 2-3 months of age (before AD symptoms), tested at 3-4 months, vs DMSO) was “prevented”. For the same compound, the “memory loss (MWM, NOR)” value in the test on 5×FAD+/− mice (3.2 mg/kg/day for one month started at 3-4 months of age (after AD symptom), tested at 4-5 months, vs DMSO) is on record as “rescued”. The “learning and memory impairments (MWM, NOR)” value in the test on 5×FAD+/− mice (3.2 mg/kg/day for one month, vs DMSO) is “rescued”. In addition, in the test with 5×FAD+/− mice (0.8, 1.6, 3.2 mg/kg/day for one month, 5×FAD mice), the “beneficial effect on learning and memory, dependence on dose” value was “dose-dependent”. Besides, the “memory deficits (MWM, NOR)” value in the test with 5×FAD+/− mice (6-7 and 10-12 months old 5×FAD+/− mice (late stages of AD), 3.2 mg/kg/day for 1 month, vs DMSO) is reported as “rescued”. In addition, in the test with 3×TG+/− mice, the “discrimination index in the NOR test” value is given as “increased”, the “latency to the target platform in the MWM test” value is given as “significantly shortened”, the “swimming speed in the MWM test” value is “increased” and the “time spent in the target zone in the MWM test” value is given as “increased”. Also, the “walking velocity in the NOR test” value with 3×TG+/− mice is reported as “increased”.
